Laboratory results: patent publication US20030065039A1, “Biologically active 1,3-bis-aromatic-prop-2-en-1-ones, 1,3-bis-aromatic-propan-1-ones, and 1,3-bis-aromatic-prop-2-yn-1-ones” (Statens Serum Institute, priority 1997, published 2003)
In brackets after ≈: the same amount, converted by molar mass. Read-outs that look alike come from different tables or passages of the source.

Columns and labels:
Helicobacter pylori = experiment: Helicobacter species Assay (agar plate, MIC); assay type: cell-based; details: for MIC: 20 strains of H. pylori, agar plate, 72 hours; for No. strains inhibited/No. strains tested: at the MIC of the same line
Description: (§1) 20 strains of Helicobacter pylori were used in an agar plate assay. The compounds were incorporated in the agar plates at different concentrations as described in the examples and were then inoculated with different strains of Helicobacter pylori followed by incubation in a microaerophilic atmosphere at 37° C. for 72 hours. The number of colony-forming units (CFU) were counted after the incubation period. The MIC values were determined as the minimal concentration required to inhibit growth of the bacteria.
(§2) Stock solutions were made at a concentration of 1 mg/ml by dissolving 1 mg of each compound in 100 μl DMSO (dimethylsulfoxide) followed by addition of 900 μl of heat-inactivated fetal claf serum (HFCS). These stock solutions were diluted with HFCS to make solutions having the following concentrations: 320 μg/ml, 160 μg/ml, 80 μg/ml, 40 μg/ml and 20 μg/ml. Dilution rows were made with 3 ml aliquots in vials containing the compounds in the following final test concentrations: 16 μg/ml, 8 μg/ml, 4 μg/ml, 2 μg/ml and 1 μg/ml. As control was used DMSO-HFCS containing an amount of DMSO equal to the amount of test compound in the solution with 320 μg/ml compound.
as §1, with “Bacteria: 20” for “20”, “concentrations” for “concentrations as described in the examples”, “and then they” for “and”, “were” for “were then”, “incubation at” for “incubation in a”, “C. in” for “C. for”
as §2, with “concentrations: 2560 μg/ml, 1280 μg/ml, 640 μg/ml,” for “concentrations:”, “160 µg/ml and” for “160 μg/ml,”, “80” for “80 μg/ml, 40 μg/ml and 20”, “concentrations: 128 μg/ml, 64 μg/ml, 32 μg/ml, 12” for “concentrations: 16”, “8” for “8 μg/ml, 4 μg/ml, 2”, “and 4” for “and 1”
Bacteria: 20 strains of Helicobacter pylori were used in an agar plate assay. The same method as described above under Experiment A was employed and MIC values were determined.

TNF-α [1] = experiment: Intracellular TNF-α in human mononuclear cells (flow cytometry); assay type: cell-based; details: for % TNFα- producing cells: DMSO 10.1; for inhibition at 6.25 µg/mL / inhibition at 12.5 µg/mL / inhibition at 25 µg/mL / inhibition at 3.125 µg/mL: Homo sapiens
Description: (§3) [table] Incubation condition: Cells and mitogen added at the same time and the compound solution added immediately after in polypropylene tubes and incubated at 37° C. in CO2 incubator overnight. The following day the cells and the supernatant were harvested for TNF-α determination. Incubation condition: Cells and mitogen added at the same time and the compound solution added immediately after in polypropylene tubes and incubated at 37° C. in CO2 incubator overnight. The following day the cells and the supernatant were harvested for TNF-α determination.

TNF-α [2] = experiment: Extracellular TNF-α of human mononuclear cells (supernatant); assay type: cell-based; details: for inhibition at 3.125 µg/mL: compound 3.125 μg/ml; for inhibition at 6.25 µg/mL: compound 6.25 μg/ml; for inhibition at 12.5 µg/mL: compound 12.5 μg/ml
Description: as §3, with “Incubation” for “[table] Incubation”

[3] = Preliminary 14 days oral toxicity study in rats; assay type: in vivo; details: highest dose level 1000 mg/kg/day
Description: A preliminary 14 days oral toxicity study in rats was carried out with 6 compounds. Observations included clinical signs, body weights, food intake, haematology, clinical chemistry and macroscopic pathology.

Vero cell cultures = experiment: Cytotoxicity in Vero cell cultures; assay type: cell-based; details: Vero cells; values given as fractions, footnote a not given
Source text: In the following is reported the results from a Vero cell culture infected with different viruses. The cell culture used as well as the methods applied are well known to a person skilled in the art.

[4] = system: cytomegalovirus AD-169 strain; experiment: Activity against cytomegalovirus in HEL cells (plaque formation); assay type: cell-based; details: virus plaque formation reduced by 50%, 100 PFU, values given as fractions
Description: (§4) IC50 values are determined by the virus plaque formation and/or the virus cytopathic assay using standard methods well-known in the art.

[5] = system: cytomegalovirus Davis strain; experiment: as above; assay type: cell-based; details: virus plaque formation reduced by 50%, 100 PFU, values given as fractions
Description: as §4

TNF-α [6] = experiment: TNF-α in lysate of stimulated human mononuclear cells (ELISA); assay type: cell-based; details: cells preincubated with compound, stimulated with SPAG or LPS
Description: Therefore, experiments were performed to examine the effect of Licochalcone A and SBC-35ma on secretion of TNF-α from the stimulated cells. These experiments included detection of the cytokines in the cell lysate by ELISA and staining of the intracellular cytokines by using monoclonal antibodies against these cytokines and cytokine receptors.

[7] = Helicobacter pylori, read-out: MIC
[8] = 1b Experiment 1, LPS 0.5 μg/ml, compound 12.5 μg/ml, DMSO 13.8
[9] = 1b Experiment 1, LPS 0.5 μg/ml, compound 25.0 μg/ml, DMSO 13.8
[10] = 1b Experiment 2, LPS 1 μg/ml, compound 3.125 μg/ml, DMSO 4.0
[11] = 1b Experiment 2, LPS 1 μg/ml, compound 6.25 μg/ml, DMSO 4.0
[12] = 1b Experiment 2, LPS 1 μg/ml, compound 12.5 μg/ml, DMSO 4.0
[13] = 1b Experiment 3, LPS 1 μg/ml, compound 3.125 μg/ml
[14] = 1b Experiment 3, LPS 1 μg/ml, compound 6.25 μg/ml
[15] = 1b Experiment 3, LPS 1 μg/ml, compound 12.5 μg/ml
[16] = 1b Experiment 4, LPS 1 μg/ml, compound 3.125 μg/ml, DMSO 14.6
[17] = 1b Experiment 4, LPS 1 μg/ml, compound 6.25 μg/ml, DMSO 14.6
[18] = 1b Experiment 4, LPS 1 μg/ml, compound 12.5 μg/ml, DMSO 14.6
[19] = 1b Experiment 1, LPS 0.5 μg/ml, compound 12.5 μg/ml, read-out: % inhibition
[20] = 1b Experiment 1, LPS 0.5 μg/ml, compound 25.0 μg/ml
[21] = 1b Experiment 2, LPS 1 μg/ml, compound 3.125 μg/ml
[22] = 1b Experiment 2, LPS 1 μg/ml, compound 6.25 μg/ml, read-out: Intracellular % inhibition
[23] = 1b Experiment 2, LPS 1 μg/ml, compound 12.5 μg/ml, read-out: Intracellular % inhibition
[24] = 1b Experiment 3, LPS 1 μg/ml, compound 6.25 μg/ml, read-out: Intracellular % inhibition
[25] = 1b Experiment 3, LPS 1 μg/ml, compound 12.5 μg/ml, read-out: Intracellular % inhibition
[26] = 1b Experiment 4, LPS 1 μg/ml, compound 3.125 μg/ml
[27] = 1b Experiment 4, LPS 1 μg/ml, compound 6.25 μg/ml, read-out: Intracellular % inhibition
[28] = 1b Experiment 4, LPS 1 μg/ml, compound 12.5 μg/ml, read-out: Intracellular % inhibition

SMILES	growth of the strains of H. pylori (FIGS. 1 and 2) (Helicobacter pylori)	MIC (Helicobacter pylori; [7])	No. strains inhibited/No. strains tested (Helicobacter pylori)	% TNF-α producing cells (TNF-α [1]; [8])	% TNF-α producing cells (TNF-α [1]; [9])	% TNF-α producing cells (TNF-α [1]; [10])	% TNF-α producing cells (TNF-α [1]; [11])	% TNF-α producing cells (TNF-α [1]; [12])	% TNFα- producing cells (TNF-α [1]; [13])	% TNFα- producing cells (TNF-α [1]; [14])	% TNFα- producing cells (TNF-α [1]; [15])	% TNF-α producing cells (TNF-α [1]; [16])	% TNF-α producing cells (TNF-α [1]; [17])	% TNF-α producing cells (TNF-α [1]; [18])	inhibition at 12.5 µg/mL (TNF-α [1]; [19])	inhibition at 25 µg/mL (TNF-α [1]; [20])	inhibition at 3.125 µg/mL (TNF-α [1]; [21])	inhibition at 6.25 µg/mL (TNF-α [1]; [22])	inhibition at 12.5 µg/mL (TNF-α [1]; [23])	inhibition at 3.125 µg/mL (TNF-α [1]; [13])	further results
COc1cc(/C=C/C(=O)c2ccccc2F)cc(OC)c1 [PH135, 2′-fluoro-3,5-dimethoxychalcone]	inhibited the growth of all the strains	32 µg/mL (≈ 112 µM)	20/20	2.3%	2.2%	4.3%	1.7%	2.0%	1.7%	1.2%	1.0%	3.5%	2.1%	1.8%	83%	84%	0%	58%	50%	83%	% TNF-α producing cells (TNF-α [1]; 1b Experiment 1, LPS 0.5 μg/ml, compound 6.25 μg/ml, DMSO 13.8): 4.1%; inhibition at 6.25 µg/mL (TNF-α [1]; 1b Experiment 1, LPS 0.5 μg/ml, compound 6.25 μg/ml, read-out: % inhibition): 70%; inhibition at 6.25 µg/mL (TNF-α [1]; [24]): 88%; inhibition at 12.5 µg/mL (TNF-α [1]; [25]): 90%; inhibition at 3.125 µg/mL (TNF-α [1]; [26]): 76%; inhibition at 6.25 µg/mL (TNF-α [1]; [27]): 86%; inhibition at 12.5 µg/mL (TNF-α [1]; [28]): 88%; inhibition at 3.125 µg/mL (TNF-α [2]; 1b Experiment 2, LPS 1 μg/ml): 96%; inhibition at 6.25 µg/mL (TNF-α [2]; 1b Experiment 2, LPS 1 μg/ml): 94%; inhibition at 12.5 µg/mL (TNF-α [2]; 1b Experiment 2, LPS 1 μg/ml): 94%; inhibition at 3.125 µg/mL (TNF-α [2]; 1b Experiment 3, LPS 1 μg/ml): 93%; inhibition at 6.25 µg/mL (TNF-α [2]; 1b Experiment 3, LPS 1 μg/ml): 92%; inhibition at 12.5 µg/mL (TNF-α [2]; 1b Experiment 3, LPS 1 μg/ml): 94%; inhibition at 3.125 µg/mL (TNF-α [2]; 1b Experiment 4, LPS 1 μg/ml): 99%; inhibition at 6.25 µg/mL (TNF-α [2]; 1b Experiment 4, LPS 1 μg/ml): 99%; inhibition at 12.5 µg/mL (TNF-α [2]; 1b Experiment 4, LPS 1 μg/ml): 98%
COc1cc(/C=C/C(=O)c2ccc(C3CCCCC3)cc2)cc(OC)c1 [PH104, 3,5-dimethoxy-4′-cyclohexylchalcone]	inhibited the growth of all the strains	64 µg/mL (≈ 183 µM)	15/20	2.4%	1.4%	2.4%	1.0%	1.7%	2.9%	1.1%	1.2%	3.0%	0.8%	1.0%	83%	90%	40%	75%	58%	71%	inhibition at 6.25 µg/mL (TNF-α [1]; [24]): 89%; inhibition at 12.5 µg/mL (TNF-α [1]; [25]): 88%; inhibition at 3.125 µg/mL (TNF-α [1]; [26]): 79%; inhibition at 6.25 µg/mL (TNF-α [1]; [27]): 95%; inhibition at 12.5 µg/mL (TNF-α [1]; [28]): 93%; inhibition at 3.125 µg/mL (TNF-α [2]; 1b Experiment 2, LPS 1 μg/ml): 82%; inhibition at 6.25 µg/mL (TNF-α [2]; 1b Experiment 2, LPS 1 μg/ml): 90%; inhibition at 12.5 µg/mL (TNF-α [2]; 1b Experiment 2, LPS 1 μg/ml): 93%; inhibition at 3.125 µg/mL (TNF-α [2]; 1b Experiment 3, LPS 1 μg/ml): 54%; inhibition at 6.25 µg/mL (TNF-α [2]; 1b Experiment 3, LPS 1 μg/ml): 70%; inhibition at 12.5 µg/mL (TNF-α [2]; 1b Experiment 3, LPS 1 μg/ml): 76%; inhibition at 3.125 µg/mL (TNF-α [2]; 1b Experiment 4, LPS 1 μg/ml): 0%; inhibition at 6.25 µg/mL (TNF-α [2]; 1b Experiment 4, LPS 1 μg/ml): 78%; inhibition at 12.5 µg/mL (TNF-α [2]; 1b Experiment 4, LPS 1 μg/ml): 86%
C=CC(C)(C)c1cc(/C=C/C(=O)c2ccc(O)cc2)c(OC)cc1O [Licochalcone A]	inhibited the growth of all the strains		20/20																		strains that gave a MIC value equal to or less than 16 μg/ml (Helicobacter pylori; 20 strains): 20 out of 20; MIC (Helicobacter pylori): 16 µg/mL (≈ 47.3 µM); toxic effects [3]: No toxic effects; Minimum Cytotoxic Concentration (Vero cell cultures): <1/100; Antiviral activity IC50, AD-169 strain, Assay 1 [4]: 1/15000; Antiviral activity IC50, Davis strain, Assay 1 [5]: 1/50000; intracellular TNF-α in the cell lysate (ELISA) (TNF-α [6]): no intracellular TNF-α present
C=CCOc1ccc(C(=O)/C=C/c2cc(OC)cc(OC)c2)cc1 [SBC-35ma, 3,5-dimethoxy-4′-allyloxychalcone]																					toxic effects [3]: No toxic effects; Minimum Cytotoxic Concentration (Vero cell cultures): <1/100; Antiviral activity IC50, AD-169 strain, Assay 1 [4]: <1/60; Antiviral activity IC50, Davis strain, Assay 1 [5]: <1/60; intracellular TNF-α in the cell lysate (ELISA) (TNF-α [6]): no intracellular TNF-α present
COc1cc(/C=C/C(=O)c2cccc(F)c2)cc(OC)c1 [PH136, 3′-fluoro-3,5-dimethoxychalcone]	inhibited the growth of all the strains	32 µg/mL (≈ 112 µM)	15/20																		
COc1cc(/C=C/C(=O)c2ccc([N+](=O)[O-])cc2)cc(OC)c1 [PH105, 4′-nitro-3,5-dimethoxychalcone]		16 µg/mL (≈ 51.1 µM)	12/20																		strains of Helicobacter pylori inhibited (Helicobacter pylori; at a concentration of 16 μg/ml, 20 strains): 12 out of 20
